Measurements published in ChEMBL document CHEMBL5257126, “Moderately lipophilic 2-(Het)aryl-6-dithioacetals, 2-phenyl-1,4-benzodioxane-6-dithioacetals and 2-phenylbenzofuran-5-dithioacetals: Synthesis and primary evaluation as potential antidiabetic AMPK-activators” (Bioorg Med Chem, 2023).
Active and inactive are the calls of the source. No cut-off for these calls is given here.

Assays:
[1] = test system: L6; assay: Induction of glucose uptake in rat L6 cells assessed as fold increase by measuring 2-NBDG uptake at 2.5 uM preincubated in high glucose medium for 48 hrs followed by compound addition and measured after 24 hrs; type: functional
[2] = test system: L6; assay: Induction of glucose uptake in rat L6 cells assessed as fold increase by measuring 2-NBDG uptake at 25 uM preincubated in high glucose medium for 48 hrs followed by compound addition and measured after 24 hrs; type: functional
[3] = test system: L6; assay: Induction of glucose uptake in rat L6 cells assessed as fold increase by measuring 2-NBDG uptake at 0.25 uM preincubated in high glucose medium for 48 hrs followed by compound addition and measured after 24 hrs; type: functional
[4] = test system: L6; assay: Inhibition of AKT phosphorylation at Ser473 in rat L6 cells assessed as fold reduction at 10 uM incubated for 24 hrs by Western blot analysis (reference value: 1.1); type: cell-based
[5] = test system: INS-1E; assay: Anti-hyperglycemic activity in rat INS-1E cells assessed as insulin secretion […] after 24 hrs; type: functional, cell-based
[6] = test system: INS-1E; assay: Anti-hyperglycemic activity in rat INS-1E cells assessed as glucose stimulated insulin secretion at 1 to 2 uM after 24 hrs; type: functional, cell-based; settings: dose 1-2 µM
[7] = target: T1, AMP-activated protein kinase, AMPK (Rattus norvegicus) (UniProt P54645+Q09137+P80386+P80385+Q9QZH4+Q6V7V4+D4A7E4); assay: Activation of AMPK phosphorylation at Thr172 residue in rat L6 cells assessed as fold increase at 0.1 uM incubated for 24 hrs by Western blot analysis (reference value: 0.6); type: cell-based; settings: filed as activator
[8] = target: T2, Serine/threonine-protein kinase STK11 (Rattus norvegicus) (UniProt D4AE59); assay: Activation of LKB1 in rat L6 cells assessed as fold increase in phosphorylation at Ser428 at 2.5 uM incubated for 24 hrs by Western blot analysis (reference value: 4.6); type: cell-based; settings: filed as activator
T2 sequence (whole entry): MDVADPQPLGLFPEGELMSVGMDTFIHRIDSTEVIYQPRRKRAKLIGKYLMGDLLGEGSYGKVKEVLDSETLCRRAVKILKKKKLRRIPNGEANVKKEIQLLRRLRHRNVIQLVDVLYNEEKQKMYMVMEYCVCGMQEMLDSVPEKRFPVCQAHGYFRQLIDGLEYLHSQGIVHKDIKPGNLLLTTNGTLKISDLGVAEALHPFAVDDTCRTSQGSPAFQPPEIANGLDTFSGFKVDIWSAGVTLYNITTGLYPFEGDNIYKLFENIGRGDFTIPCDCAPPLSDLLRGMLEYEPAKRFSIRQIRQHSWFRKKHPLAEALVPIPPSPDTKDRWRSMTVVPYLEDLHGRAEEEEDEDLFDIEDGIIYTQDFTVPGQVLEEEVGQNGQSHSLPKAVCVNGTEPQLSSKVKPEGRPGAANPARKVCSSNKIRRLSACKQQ

[9] = target: T1, AMP-activated protein kinase, AMPK (Rattus norvegicus); assay: Activation of AMPK phosphorylation in rat INS-1E beta-cells at 2 uM incubated for 24 hrs; type: cell-based; settings: filed as activator
[10] = target: T1, AMP-activated protein kinase, AMPK (Rattus norvegicus); assay: Activation of AMPK phosphorylation at Thr172 residue in rat L6 cells assessed as fold increase at 10 uM incubated for 24 hrs by Western blot analysis (reference value: 0.6); type: cell-based; settings: filed as activator
[11] = target: T1, AMP-activated protein kinase, AMPK (Rattus norvegicus); assay: Activation of AMPK phosphorylation at Thr172 residue in rat L6 cells assessed as fold increase at 2.5 uM incubated for 24 hrs by Western blot analysis (reference value: 0.6); type: cell-based; settings: filed as activator
[12] = test system: L6; assay: Inhibition of AKT phosphorylation at Ser473 in rat L6 cells assessed as fold reduction at 0.1 uM incubated for 24 hrs by Western blot analysis (reference value: 1.1); type: cell-based
[13] = test system: L6; assay: Inhibition of AKT phosphorylation at Ser473 in rat L6 cells assessed as fold reduction at 0.25 uM incubated for 24 hrs by Western blot analysis (reference value: 1.1); type: cell-based
[14] = Volume of distribution at steady state in C57BL/6 mouse at 5 mg/kg, iv; type: ADME, organism-based; settings: in vivo, read-out: Vdss
[15] = test system: L6; assay: Inhibition of AKT phosphorylation at Ser473 in rat L6 cells assessed as fold reduction at 0.5 uM incubated for 24 hrs by Western blot analysis (reference value: 1.1); type: cell-based
[16] = target: T2, Serine/threonine-protein kinase STK11 (Rattus norvegicus); assay: Activation of LKB1 in rat L6 cells assessed as fold increase in phosphorylation at Ser428 at 1 uM incubated for 24 hrs by Western blot analysis (reference value: 4.6); type: cell-based; settings: filed as activator
[17] = Half life in C57BL/6 mouse at 5 mg/kg, iv; type: ADME, organism-based; settings: in vivo
[18] = target: T1, AMP-activated protein kinase, AMPK (Rattus norvegicus); assay: Activation of AMPK phosphorylation at Thr172 residue in rat L6 cells assessed as fold increase at 5 uM incubated for 24 hrs by Western blot analysis (reference value: 0.6); type: cell-based; settings: filed as activator
[19] = target: T1, AMP-activated protein kinase, AMPK (Rattus norvegicus); assay: Activation of AMPK phosphorylation at Thr172 residue in rat L6 cells assessed as fold increase at 1 uM incubated for 24 hrs by Western blot analysis (reference value: 0.6); type: cell-based; settings: filed as activator
[20] = Half life in C57BL/6 mouse blood; type: ADME, tissue-based
[21] = target: T2, Serine/threonine-protein kinase STK11 (Rattus norvegicus); assay: Activation of LKB1 in rat L6 cells assessed as fold increase in phosphorylation at Ser428 at 0.1 uM incubated for 24 hrs by Western blot analysis (reference value: 4.6); type: cell-based; settings: filed as activator
[22] = target: T2, Serine/threonine-protein kinase STK11 (Rattus norvegicus); assay: Activation of LKB1 in rat L6 cells assessed as fold increase in phosphorylation at Ser428 at 5 uM incubated for 24 hrs by Western blot analysis (reference value: 4.6); type: cell-based; settings: filed as activator
[23] = target: T1, AMP-activated protein kinase, AMPK (Rattus norvegicus); assay: Activation of AMPK phosphorylation at Thr172 residue in rat L6 cells assessed as fold increase at 0.5 uM incubated for 24 hrs by Western blot analysis (reference value: 0.6); type: cell-based; settings: filed as activator
[24] = test system: INS-1E; assay: Anti-hyperglycemic activity in rat INS-1E cells assessed as total intracellular insulin secretion at 2 uM after 24 hrs; type: functional, cell-based
[25] = test system: L6; assay: Inhibition of AKT phosphorylation at Ser473 in rat L6 cells assessed as fold reduction at 1 uM incubated for 24 hrs by Western blot analysis (reference value: 1.1); type: cell-based
[26] = test system: L6; assay: Inhibition of AKT phosphorylation at Ser473 in rat L6 cells assessed as fold reduction at 5 uM incubated for 24 hrs by Western blot analysis (reference value: 1.1); type: cell-based
[27] = test system: L6; assay: Inhibition of AKT phosphorylation at Ser473 in rat L6 cells assessed as fold reduction at 2.5 uM incubated for 24 hrs by Western blot analysis (reference value: 1.1); type: cell-based
[28] = target: T1, AMP-activated protein kinase, AMPK (Rattus norvegicus); assay: Activation of AMPK phosphorylation at Thr172 residue in rat L6 cells assessed as fold increase at 0.25 uM incubated for 24 hrs by Western blot analysis (reference value: 0.6); type: cell-based; settings: filed as activator
[29] = target: T2, Serine/threonine-protein kinase STK11 (Rattus norvegicus); assay: Activation of LKB1 in rat L6 cells assessed as fold increase in phosphorylation at Ser428 at 0.25 uM incubated for 24 hrs by Western blot analysis (reference value: 4.6); type: cell-based; settings: filed as activator
[30] = Clearance in C57BL/6 mouse at 5 mg/kg, iv; type: ADME, organism-based; settings: in vivo
[31] = test system: INS-1E; assay: Anti-hyperglycemic activity in rat INS-1E cells assessed as basal insulin secretion after 24 hrs; type: functional, cell-based
[32] = target: T1, AMP-activated protein kinase, AMPK (Rattus norvegicus); assay: Activation of AMPK phosphorylation in rat INS-1E cells incubated for 24 hrs; type: cell-based; settings: filed as activator, dose 0.5-2 µM
[33] = Half life in C57BL/6 mouse at 25 mg/kg, po; type: ADME, organism-based; settings: in vivo
[34] = Tmax in C57BL/6 mouse at 25 mg/kg, po; type: ADME, organism-based; settings: in vivo
[35] = target: T2, Serine/threonine-protein kinase STK11 (Rattus norvegicus); assay: Activation of LKB1 in rat L6 cells assessed as fold increase in phosphorylation at Ser428 at 10 uM incubated for 24 hrs by Western blot analysis (reference value: 4.6); type: cell-based; settings: filed as activator
[36] = target: T1, AMP-activated protein kinase, AMPK (Rattus norvegicus); assay: Activation of AMPK phosphorylation in rat L6 cells incubated for 24 hrs by Western blot analysis; type: cell-based; settings: filed as activator, dose 0.6-9.31 µM
[37] = Cmax in C57BL/6 mouse at 25 mg/kg, po; type: ADME, organism-based; design: dose 25 mg/kg, route po; settings: in vivo
[38] = Oral bioavailability in C57BL/6 mouse at 25 mg/kg; type: ADME, organism-based; settings: in vivo
[39] = target: T2, Serine/threonine-protein kinase STK11 (Rattus norvegicus); assay: Activation of LKB1 in rat L6 cells assessed as fold increase in phosphorylation at Ser428 at 0.5 uM incubated for 24 hrs by Western blot analysis (reference value: 4.6); type: cell-based; settings: filed as activator
[40] = target: T2, Serine/threonine-protein kinase STK11 (Rattus norvegicus); assay: Activation of LKB1 in rat L6 cells assessed as fold increase in phosphorylation at Ser428 at 10 uM incubated for 24 hrs by Western blot analysis; type: cell-based
[41] = target: T2, Serine/threonine-protein kinase STK11 (Rattus norvegicus); assay: Activation of LKB1 in rat L6 cells assessed as fold increase in phosphorylation at Ser428 at 25 uM incubated for 24 hrs by Western blot analysis; type: cell-based; settings: filed as activator

Compound: c1cncc(C2CCc3cc(C4SCCCS4)ccc3O2)c1 (stereo not given)
- fold change (FC) [1]: 1
- fold change (FC) [2]: 1.3
- fold change (FC) [3]: 1

Compound: O[C@H]1CS[C@H](c2ccc3c(c2)CCC(c2ccccc2)O3)SC1 (stereo not given in full)
- fold change (FC) [1]: 0.9
- fold change (FC) [2]: 1
- fold change (FC) [3]: 1.1

Compound: c1cc(C2CCc3cc(C4SCCCS4)ccc3O2)ccn1 (stereo not given)
- fold change (FC) [4]: 0.18
- Activity [5]: Dose-Dependent Effect
- Activity [6]: Active
- fold change (FC) [7]: 0.5
- fold change (FC) [8]: 4.1
- Activity [9]: Active
- fold change (FC) [10]: 9
- fold change (FC) [11]: 5.11
- fold change (FC) [12]: 1.1
- fold change (FC) [13]: 0.22
- Vd [14]: 1.23 L/kg
- fold change (FC) [1]: 1.2
- fold change (FC) [15]: 0.12
- fold change (FC) [16]: 5.71
- half-life [17]: 49.6 min
- fold change (FC) [18]: 6.32
- fold change (FC) [19]: 1.58
- half-life [20]: 66.6 min
- fold change (FC) [21]: 5.56
- fold change (FC) [22]: 4.78
- fold change (FC) [23]: 1.33
- Activity [24]: inactive
- fold change (FC) [25]: 0.3
- fold change (FC) [26]: 0.25
- fold change (FC) [27]: 0.18
- fold change (FC) [28]: 2.33
- fold change (FC) [29]: 5.33
- clearance [30]: 31.2 mL/min/kg
- Activity [31]: inactive
- fold change (FC) [2]: 1.1
- Activity [32]: Dose-Dependent Effect
- half-life [33]: 66.6 min
- Tmax [34]: 30 min
- fold change (FC) [35]: 5
- Activity [36]: Dose-Dependent Effect
- Cmax [37]: 7630 ng/mL
- fold change (FC) [3]: 1.8
- bioavailability [38]: 99%
- fold change (FC) [39]: 5.25

Compound: c1ccc(-c2cc3cc(C4SCCCCS4)ccc3o2)cc1
- fold change (FC) [1]: 1
- fold change (FC) [2]: 1.1
- fold change (FC) [3]: 1

Compound: CC(C)(C)OC(=O)NCCSC(SCCNC(=O)OC(C)(C)C)c1ccc2c(c1)CCC(c1ccccc1)O2 (stereo not given)
- fold change (FC) [1]: 1
- fold change (FC) [2]: 1
- fold change (FC) [3]: 1

Compound: O=C(NCCSC(SCCNC(=O)OCc1ccccc1)c1ccc2c(c1)CCC(c1ccccc1)O2)OCc1ccccc1 (stereo not given)
- fold change (FC) [1]: 1.1
- fold change (FC) [2]: 1.1
- fold change (FC) [3]: 0.9

Compound: COc1cccc(C2CCc3cc(C4SCCCS4)ccc3O2)c1 (stereo not given)
- fold change (FC) [1]: 1
- fold change (FC) [2]: 1.5
- fold change (FC) [3]: 1

Compound: c1ccc(C2CCc3cc(C4SCCCCS4)ccc3O2)cc1 (stereo not given)
- Activity [40]: 30%
- Activity [41]: 80%

Compound: OCCSC(SCCO)c1ccc2c(c1)CCC(c1ccccc1)O2 (stereo not given)
- fold change (FC) [1]: 1
- fold change (FC) [2]: 1.5
- fold change (FC) [3]: 1

Compound: c1ccc(C2COc3cc(C4SCCCCS4)ccc3O2)cc1 (stereo not given)
- fold change (FC) [1]: 1
- fold change (FC) [2]: 1.1
- fold change (FC) [3]: 1
